Experimental data reported in patent US6858647B2, “Retinoid compounds suited for antibacterial applications” (Galderma Research & Development S.N.C., priority 2000, dated 2005).
≈ marks a conversion by molar mass, not a printed value. Read-outs that look alike come from different tables or passages of the source.

How the values were obtained:
[1] = test system: Staphylococcus aureus CIP52.1; assay: Minimum inhibitory concentration (MIC), NCCLS dilution antimicrobial susceptibility test; type: cell-based
Source text: The bacterium Staphylococcus aureus CIP52.1 may be used in order to determine for each test compound the minimum inhibitory concentration for the bacterium, or MIC, expressed in μM.
The technique employed to determine the minimum inhibitory concentration or MIC was that described in the publication entitled “National committee for clinical laboratory standards” Vol. 13, No. 25, December 1993; Methods for dilution antimicrobial susceptibility tests for bacteria that grow aerobically-third edition, approved standard”. This minimum inhibitory concentration gives an indication as to the bacteriostatic effect of the test compounds, i.e., the capacity of these compounds to stop the proliferation of the bacterium.
Each compound of the invention was tested at least three times. The average of the test results was calculated, along with the standard deviation. The reference compound used was gentamycin.
The technique employed to determine the MIC values was the same as that described in Example 1.
Each compound of the invention and each comparative example taken from the Pierre Fabre patent application No. FR-2,736,548 was tested at least three times. The mean of the test results was calculated, along with the standard deviation. The reference compound used was gentamycin.

RAR receptor = assay: Biological activity of RAR receptor antagonist / agonist type; settings: stated in words, no test described
[2] = Table II, Example 1, mean of at least three tests, bacteriostatic effect, read-out: MIC RESULTS MEAN
[3] = Staphylococcus aureus, CIP52, Table II, Example 1, mean of at least three tests, bacteriostatic effect, read-out: MIC RESULTS MEAN
[4] = Staphylococcus aureus, CIP52, read-out: MIC RESULTS MEAN

Row | SMILES | MIC [1, 3] [µM] | also measured
1 | COc1ccc(-c2ccc3cc(C(=O)NCCN(C)C)ccc3c2)cc1C12CC3CC(CC(C3)C1)C2 [Compound 41, (2-Dimethylaminoethyl)amide of 6-(3-adamantan-1-yl-4-methoxyphenyl)naphthalene-2-carboxylic acid] | – | MIC [1, 2]: 5.00 µM (≈ 2.41 µg/mL)
2 | CC(CO)COc1ccc(C#Cc2ccc(C(=O)O)cc2)cc1C12CC3CC(CC(C3)C1)C2 (stereo not drawn) [Compound 19, 4-[[3-(1-Adamantyl)-4-[(2-methyl-3-hydroxypropyloxy)phenyl]ethynyl]]benzoic acid] | – | MIC [1, 2]: 2.50 µM (≈ 1.11 µg/mL)
3 | COCOc1ccc(/C=C/C#Cc2ccc(C(=O)O)cc2)c(-c2ccc(C)cc2)c1 [Compound 31, (E)-4-[4-(5-Methoxymethoxy-4′ -methylbiphenyl-2-yl)but-3-en-1-ynyl]benzoic acid] | 3.33 (≈ 1.33 µg/mL) | biological activity at RAR receptor (antagonist or agonist type) (RAR receptor): RAR receptor antagonist type
4 | CCCc1ccc(-c2ccccc2C=CC#Cc2ccc(C(=O)O)cc2)cc1 [Compound 21, 4-[4-(4′-Propylbiphenyl-2-yl)but-3-en-1-ynyl]benzoic acid] | 2.5 (≈ 0.916 µg/mL) | biological activity at RAR receptor (antagonist or agonist type) (RAR receptor): RAR receptor antagonist type
5 | OCc1ccc2cc(-c3ccc(O)c(C45CC6CC(CC(C6)C4)C5)c3)ccc2c1 [Compound 27, 6-[3-(1-Adamantyl)-4-hydroxyphenyl]-2-napthylmethanol] | – | MIC [1, 2]: 3.33 µM (≈ 1.28 µg/mL)
6 | O=C(O)c1ccc(-c2ccc3cc(O)c(C45CC6CC(CC(C6)C4)C5)cc3c2)cc1 [Compound 16] | – | MIC [1, 2]: 2.50 µM (≈ 0.996 µg/mL); biological activity at RAR receptor (antagonist or agonist type) (RAR receptor): RAR receptor agonist type
7 | COc1cccc(C=CC#Cc2ccc(C(=O)O)cc2)c1-c1ccc(C)cc1 [Compound 3, 4-[4-(6-Methoxy-4′-methylbiphenyl-2-yl)but-3-en-1-ynyl]benzoic acid] | 1.04 (≈ 0.383 µg/mL) | biological activity at RAR receptor (antagonist or agonist type) (RAR receptor): RAR receptor antagonist type
8 | Cc1ccc(-c2ccc(C)cc2C=CC#Cc2ccc(C(=O)O)cc2)cc1 [Compound 8, 4-[4-(4,4′-Dimethylbiphenyl-2-yl)but-3-en-1-ynyl]benzoic acid] | 1.66 (≈ 0.585 µg/mL) | –
9 | Cc1cc2c(cc1[Se]C#Cc1ccc(C(=O)O)cc1)C(C)(C)CCC2(C)C [Compound 33, 4-(3,5,5,8,8-Pentamethyl-5,6,7,8-tetrahydronaphthalen-2-ylselanylethynyl)benzoic acid] | – | MIC [1, 4]: 3.33 µM (≈ 1.42 µg/mL)
10 | Cc1ccc(-c2c(C)cccc2C=CC#Cc2ccc(C(=O)O)cc2)cc1 [Compound 12, 4-[4-(6,4′-Dimethylbiphenyl-2-yl)but-3-en-1-ynyl]benzoic acid] | 2.08 (≈ 0.733 µg/mL) | –
11 | CC1(C)CCC(C)(C)c2cc(-c3cc(-c4ccc(C(=O)O)cc4)ccc3-c3cccc(O)c3)ccc21 [Compound 44, 3-Hydroxy-2′-(5,5,8,8-tetramethyl-5,6,7,8-tetrahydronaphthalen-2-yl) [1,1′,4′,1″]terphenyl-4″-carboxylic acid] | – | MIC [1, 2]: 5.00 µM (≈ 2.38 µg/mL)
12 | CC1(C)CCC(C)(C)c2cc(-c3cc(-c4ccc(C(=O)O)cc4)ccc3-c3ccc(O)cc3)ccc21 [Compound 9, 4-Hydroxy-2′(5,5,8,8-tetramethyl-5,6,7,8-tetrahydronaphthalen-2-yl) [1,1′,4′,1″]terphenyl-4″-carboxylic acid] | – | MIC [1, 2]: 1.66 µM (≈ 0.791 µg/mL); biological activity at RAR receptor (antagonist or agonist type) (RAR receptor): RAR receptor agonist type
13 | COc1cc2c(cc1-c1cc(-c3ccc(C(=O)O)cc3)ccc1-c1ccccc1)C(C)(C)CCC2(C)C [Compound 23, 2′-(3-Methoxy-5,5,8,8-tetramethyl-5,6,7,8-tetrahydronaphthalen-2-yl) [1,1′,4′,1″]terphenyl-4″-carboxylic acid] | – | MIC [1, 2]: 2.50 µM (≈ 1.23 µg/mL)
14 | COCOc1cc2c(cc1-c1cc(-c3ccc(C(=O)O)cc3)ccc1-c1ccccc1)C(C)(C)CCC2(C)C [Compound 43, 2′-(3-Methoxymethoxy-5,5,8,8-tetramethyl-5,6,7,8-tetrahydronaphthalen-2-yl) [1,1′,4′,1″]terphenyl-4″-carboxylic acid] | – | MIC [1, 2]: 5.00 µM (≈ 2.6 µg/mL)
15 | CCCOc1ccc(-c2ccc3c(c2)C(C)(C)CCC3(C)C)cc1-c1ccc(C(=O)O)cc1 [Compound 38, 2′-Propoxy-5′-(5,5,8,8-tetramethyl-5,6,7,8-tetrahydronaphthalen-2-yl)bipheny-1-4-carboxylic acid] | – | MIC [1, 2]: 4.16 µM (≈ 1.84 µg/mL)
16 | Cc1cc2c(cc1[Se]C#Cc1ccc(C(=O)O)c(O)c1)C(C)(C)CCC2(C)C [Compound 22, 2-Hydroxy-4-(3,5,5,8,8-pentamethyl-5,6,7,8-tetrahydronaphthalen-2-ylselanylethynyl)benzoic acid] | – | MIC [1, 4]: 2.5 µM (≈ 1.1 µg/mL)
17 | CCCCCCCC/C=C(\C(=O)Nc1ccc(C(=O)O)cc1)c1ccc2c(c1)C(C)(C)CCC2(C)C [Compound 36, 4-[(Z)-2-(5,6,7,8-tetrahydro-5,5,8,8-tetramethyl-2-naphthyl)-2-undecenamido]benzoic acid] | 4.16 (≈ 2.04 µg/mL) | –
18 | CCCCOC(c1ccc2c(c1)C(C)(C)CCC2(C)C)c1ccc2cc(C(=O)O)ccc2c1 (stereo not drawn) [Compound 24, 6-[Butoxy-(5,5,8,8-tetramethyl-5,6,7,8-tetrahydronaphthalen-2-yl)methyl]naphthalene-2-carboxylic acid] | 3.33 (≈ 1.48 µg/mL) | –
19 | CCCCCCCCCON=C(C(=O)Nc1ccc(C(=O)O)cc1)c1ccc2c(c1)C(C)(C)CCC2(C)C [Compound 17, 4-[2-Nonyloxyimino-2-(5,5,8,8-tetramethyl-5,6,7,8-tetrahydronaphthalen-2-yl)acetylamino]benzoic acid] | 2.5 (≈ 1.3 µg/mL) | –
20 | CC1(C)CCC(C)(C)c2cc([Se]C#Cc3ccc(C(=O)O)c(O)c3)ccc21 [Compound 42, 2-Hydroxy-4-(5,5,8,8-tetramethyl-5,6,7,8-tetrahydronaphthalen-2-ylselanylethynyl)benzoic acid] | – | MIC [1, 4]: 5 µM (≈ 2.14 µg/mL)
21 | CC1(C)CCC(C)(C)c2cc(Oc3ccc4cc(C(N)=O)ccc4c3)ccc21 [Compound 40, 6-(5,5,8,8-Tetramethyl-5,6,7,8-tetrahydronaphthalen-2-yloxy)naphthalene-2-carboxylic acid amide] | 5 (≈ 1.87 µg/mL) | –

Second part, led by results:

Row | MIC [1, 3] [µM] | SMILES | also measured
22 | 5 (≈ 2.46 µg/mL) | CCCCCCCON=C(C(=O)Nc1ccc(C(=O)O)cc1)c1ccc2c(c1)C(C)(C)CCC2(C)C [Compound 39, 4-[2-Heptyloxyimino-2-(5,5,8,8-tetramethyl-5,6,7,8-tetrahydronaphthalen-2-yl)acetylamino]-benzoic acid] | –
23 | 3.33 (≈ 1.58 µg/mL) | CCCCCCOc1ccc(C(=O)Nc2ccc(C(=O)O)cc2)cc1C12CC3CC(CC(C3)C1)C2 [Compound 26, 4-(3-Adamantan-1-yl-4-hexyloxybenzoylamino)benzoic acid] | –
24 | 3.33 (≈ 1.25 µg/mL) | CC1(C)CCC(C)(C)c2cc3cc(-c4ccc(C(=O)O)c(O)c4)ccc3cc21 [Compound 28, 2-Hydroxy-4-(5,5,8,8-tetramethyl-5,6,7,8-tetrahydroanthracen-2-yl)benzoic acid] | –
25 | 3.33 (≈ 1.46 µg/mL) | CCCCCCCCCC(C)(C)c1cc(C(=O)Nc2ccc(C(=O)O)cc2)ccc1OC [Compound 25, 4-[3-(1,1-Dimethyldecyl)-4-methoxybenzoylamino]-benzoic acid] | –
26 | 2.08 (≈ 0.993 µg/mL) | O=C(O)c1ccc2cc(-c3cc(Br)c(O)c(C45CC6CC(CC(C6)C4)C5)c3)ccc2c1 [Compound 11, 6-(3-Adamantan-1-yl-5-bromo-4-hydroxyphenyl)-naphthalene-2-carboxylic acid] | biological activity at RAR receptor (antagonist or agonist type) (RAR receptor): RAR receptor agonist type
27 | 1.25 (≈ 0.516 µg/mL) | Cc1cc(O)c(C23CC4CC(CC(C4)C2)C3)cc1-c1ccc2cc(C(=O)O)ccc2c1 [Compound 4, 6-[2-Methyl-4-hydroxy-5-(1-adamantyl)phenyl]-2-naphthoic acid] | –
28 | 2.5 (≈ 0.901 µg/mL) | CC1(C)CCC(C)(C)c2cc3cc(-c4ccc(CO)c(O)c4)ccc3cc21 [Compound 20, 2-Hydroxymethyl-5-(5,5,8,8-tetramethyl-5,6,7,8-tetrahydroanthracen-2-yl)phenol] | –
29 | 3.33 (≈ 1.23 µg/mL) | COc1cccc(-c2ccc(C)cc2)c1C=CC#Cc1ccc(C(=O)O)cc1 [Compound 32, 4-[4-(3-Methoxy-4′-methylbiphenyl-2-yl)but-3-en-1-ynyl]benzoic acid] | biological activity at RAR receptor (antagonist or agonist type) (RAR receptor): RAR receptor antagonist type
30 | 5 (≈ 2.01 µg/mL) | COc1cc(C)c(-c2cccc(C=CC(=O)O)c2)cc1C12CC3CC(CC(C3)C1)C2 [Compound 45, 3-(5′-Adamantan-1-yl-4′-methoxy-2′-methylbiphenyl-3-yl)acrylic acid] | –
31 | 4.16 (≈ 1.41 µg/mL) | Cc1ccc(-c2ccccc2C=CC#Cc2ccc(C(=O)O)cc2)cc1 [Compound 37, 4-[4-(4′-Methylbiphenyl-2-yl)but-3-en-1-ynyl]benzoic acid] | biological activity at RAR receptor (antagonist or agonist type) (RAR receptor): RAR receptor antagonist type
32 | 1.25 (≈ 0.443 µg/mL) | Cc1ccc(-c2ccccc2C=CC#Cc2ccc(C(=O)O)c(O)c2)cc1 [Compound 6, 2-Hydroxy-4-[4-(4′-methylbiphenyl-2-yl)but-3-en-1-ynyl]benzoic acid] | –
33 | 2.5 (≈ 1.19 µg/mL) | COCCOCOc1ccc(C#Cc2ccc(C(=O)O)c(O)c2)cc1C12CC3CC(CC(C3)C1)C2 [Compound 18, 4-[3-Adamantan-1-yl-4-(2-methoxyethoxymethoxy)-phenylethynyl]-2-hydroxybenzoic acid] | –
34 | 3.33 (≈ 1.29 µg/mL) | O=C(O)c1ccc2oc(-c3ccc(O)c(C45CC6CC(CC(C6)C4)C5)c3)cc2c1 [Compound 29, 2-(3-Adamantan-1-yl-4-hydroxyphenyl)benzofuran-5-carboxylic acid] | –
